The results in this text go back to patent US20170240539A1, “Preparation and Use of Cyclic Sulfonamide Derivatives as PAR-1 Receptor Antagonists” (MERCK SHARP & DOHME CORP., priority 2014, published 2017).

Broadly, the IC50 is the midpoint of a concentration-inhibition curve.

Structures are written as SMILES.

This assay deals with T1, PAR-1 receptor (Homo sapiens, UniProt P25116).
T1 construct: endogenous in cells; host or cells: HEK 293
T1 sequence (P25116 22-425): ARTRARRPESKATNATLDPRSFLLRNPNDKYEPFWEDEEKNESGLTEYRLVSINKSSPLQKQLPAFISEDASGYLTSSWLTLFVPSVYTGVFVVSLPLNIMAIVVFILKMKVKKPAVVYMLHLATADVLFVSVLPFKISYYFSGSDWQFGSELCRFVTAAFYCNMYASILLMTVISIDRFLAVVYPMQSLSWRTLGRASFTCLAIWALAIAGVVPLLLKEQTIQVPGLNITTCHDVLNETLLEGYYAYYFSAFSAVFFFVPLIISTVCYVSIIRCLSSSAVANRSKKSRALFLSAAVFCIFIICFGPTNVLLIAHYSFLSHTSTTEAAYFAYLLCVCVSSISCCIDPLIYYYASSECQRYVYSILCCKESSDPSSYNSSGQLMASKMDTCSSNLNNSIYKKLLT
The experiment in a line: PAR-1 FLIPR Assay. The assay is classed as cell-based. The settings on record: HEK 293 cells, FLIPR calcium-5 dye; inhibition of signal from PAR1 selective receptor-activating peptide at 80% activation concentration (1.4-2.0 uM); compound incubated 30 minutes at 25 degrees. The method, then:
The following assay was used to determine the ability of the inventive compounds to inhibit the PAR-1 receptor.
HEK 293 Cells are grown in media containing DMEM, 10% FBS pen/strep/L-Glutamine and non-essential amino acids. The cells are plated in 384-well PDL coated plates at 12000 cells/well and incubated overnight at 37° C./5% CO2. Media is then removed from the cells, which are then incubated with buffer (Hank's containing HEPES and Chaps) containing FLIPR calcium-5 dye, made with buffer containing probenecid, for 60 minutes at 37° C. Varying concentrations of compound in a final concentration of 5% DMSO are then added to the cells and incubated at 25 degrees for 30 minutes. The plates are then added to a FLIPR Tetra cellular screening system and the device adds a concentration of a PAR1 selective receptor-activating peptide with the sequence Ala-parafluoroPhe-Arg-Cha-Cit-Tyr-NH2 (SEQ ID NO: 3) (prepared in water) at a concentration equal to the effective concentration that achieves 80% activation of signaling on the day of the experiment. The range is from 1.4-2.0 uM peptide. The FLIPR reads at an excitation wavelength of 480 nm and an emission wavelength of 535 nm, and performs 60 scans over a 1-2 min reading time. The data are analyzed by taking the peak signal over a portion of the range of the 60 scans and dividing this signal by the minimum signal for that same range. The data are expressed as percent inhibition of the maximum divided by the minimum signal achieved at 80% activation produced by the PAR1 activating peptide on the test day.

Regarding `CC(=O)N1[C@H](C)[C@H]2[C@@H](/C=C/c3ccc(-c4ccccc4C#N)cn3)[C@H](C)C(F)(F)C[C@H]2S1(=O)=O` [Example 4, 1-((3R,3aR,4S,5S,7aR)-6,6-difluoro-4-((E)-2-(5-(2-cyanophenyl)pyridin-2-yl)vinyl)-3,5-dimethyl-1,1-dioxidohexahydrobenzo[d]isothiazol-2(3H)-yl)ethanone], the IC50 turned out to be 483 nM.

On to `C[C@H]1NS(=O)(=O)[C@]2(C)CC(F)(F)[C@@H](C)[C@H](/C=C/c3ccc(-c4cccnc4C#N)cn3)[C@H]12` [Example 17, (3R,3aR,4S,5S,7aR)-6,6-difluoro-4-((E)-2-(2′-cyano-[3,3′-bipyridin]-6-yl)vinyl)-3,5,7a-trimethyloctahydrobenzo[d]isothiazole 1,1-dioxide], for which the IC50 was found to be 12 nM.

Consider `C[C@H]1NS(=O)(=O)[C@@H]2CC(F)(F)[C@@H](C)[C@H](/C=C/c3ccc(-c4cccc(F)c4)cn3)[C@@H]21` [Example 5, (3R,3aR,4S,5S,7aR)-6,6-difluoro-4-((E)-2-(5-(3-fluorophenyl)pyridin-2-yl)vinyl)-3,5-dimethyloctahydrobenzo[d]isothiazole 1,1-dioxide], for which the IC50 is 19 nM.

In the case of `C[C@H]1NS(=O)(=O)[C@]2(C)CC(F)(F)[C@@H](C)[C@H](/C=C/c3ccc(-c4cccc(F)c4)cn3)[C@H]12` [Example 15, (3R,3aR,4S,5S,7aR)-6,6-difluoro-4-((E)-2-(5-(3-fluorophenyl)pyridin-2-yl)vinyl)-3,5,7a-trimethyloctahydrobenzo[d]isothiazole 1,1-dioxide], the IC50 came out at 55.1 nM.

For `Cc1nc(/C=C/[C@@H]2[C@H]3[C@@H](CC(F)(F)[C@H]2C)S(=O)(=O)N[C@@H]3C)ccc1-c1cccnc1C#N` [Example 7], the IC50 was determined as 41 nM.

For the compound `C[C@H]1NS(=O)(=O)[C@@H]2CC(F)(F)[C@@H](C)[C@H](/C=C/c3ccc(-c4cccnc4C#N)cn3)[C@@H]21` [Example 2, (3R,3aR,4S,5S,7aR)-6,6-difluoro-4-((E)-2-(2′-cyano-[3,3′-bipyridin]-6-yl)vinyl)-3,5-dimethyloctahydrobenzo[d]isothiazole 1,1-dioxide], the IC50 worked out at 55.8 nM.

On to `C[C@H]1NS(=O)(=O)[C@]2(CC(=O)O)CC(F)(F)[C@@H](C)[C@H](/C=C/c3ccc(-c4ccccc4C#N)cn3)[C@H]12` [Example 25, 2-((3R,3aR,4S,5S,7aR)-4-((E)-2-(5-(2-cyanophenyl)pyridin-2-yl)vinyl)-6,6-difluoro-3,5-dimethyl-1,1-dioxidooctahydrobenzo[d]isothiazol-7a-yl)acetic acid], for which the IC50 amounted to 12 nM.

Turning to `C[C@H]1NS(=O)(=O)[C@]2(CC(N)=O)CC(F)(F)[C@@H](C)[C@H](/C=C/c3ccc(-c4cccnc4C#N)cn3)[C@H]12` [Example 24, 2-((3R,3aR,4S,5S,7aR)-6,6-difluoro-4-((E)-2-(2′-cyano-[3,3′-bipyridin]-6-yl)vinyl)-3,5-dimethyl-1,1-dioxidooctahydrobenzo[d]isothiazol-7a-yl)acetamide], the IC50 came out at 89 nM.

`CC[C@@H]1CC[C@@H]2[C@H]([C@H]1/C=C/c1ccc(-c3ccccc3C#N)cn1)[C@@H](C)N(C(=O)OC(C)(C)C)S2(=O)=O` [Example 11, (3R,3aR,4R,5R,7aR)-tert-butyl 4-((E)-2-(5-(2-cyanophenyl)pyridin-2-yl)vinyl)-5-ethyl-3-methylhexahydrobenzo[d]isothiazole-2(3H)-carboxylate1,1-dioxide]: the half-inhibitory concentration (IC50) is 286 nM.

Turning to `CC(=O)N1[C@H](C)[C@H]2[C@@H](/C=C/c3ccc(-c4ccccc4C#N)cn3)[C@@H](C)C(F)(F)C[C@H]2S1(=O)=O` [Example 9, 1-((3R,3aR,4S,5R,7aR)-6,6-difluoro-4-((E)-2-(5-(2-cyanophenyl)pyridin-2-yl)vinyl)-3,5-dimethyl-1,1-dioxidohexahydrobenzo[d]isothiazol-2(3H)-yl)ethanone], the IC50 stood at 564 nM.

`COc1ncccc1-c1ccc(/C=C/[C@@H]2[C@@H]3[C@@H](C)NS(=O)(=O)[C@@]3(CC(N)=O)CC(F)(F)[C@H]2C)nc1` [Example 22, 2-((3R,3aR,4S,5S,7aS)-6,6-difluoro-4-((E)-2-(2′-methoxy-[3,3′-bipyridin]-6-yl)vinyl)-3,5-dimethyl-1,1-dioxidooctahydrobenzo[d]isothiazol-7a-yl)acetamide]: the IC50 is 337 nM.

`CCOC(=O)N1[C@H](C)[C@H]2[C@@H](/C=C/c3ccc(-c4ccccc4C#N)cn3)[C@H](CC)CC[C@H]2S1(=O)=O` [Example 28, (3R,3aR,4R,5R,7aR)-ethyl 4-((E)-2-(5-(2-cyanophenyl)pyridin-2-yl)vinyl)-5-ethyl-3-methylhexahydrobenzo[d]isothiazole-2(3H)-carboxylate 1,1-dioxide]: the IC50 was determined as 325 nM.

On to `C[C@@H]1[C@H](/C=C/c2ccc(-c3ccccc3C#N)cn2)[C@H]2[C@@H](CC1(F)F)S(=O)(=O)N[C@@H]2C` [Example 8, (3R,3aR,4S,5R,7aR)-4-((E)-2-(5-(2-cyanophenyl)pyridin-2-yl)vinyl)-6,6-difluoro-3,5-dimethyloctahydrobenzo[d]isothiazole-1,1-dioxide], for which the IC50 is 178 nM.

On to `CCOC(=O)C[C@@]12CC(F)(F)[C@@H](C)[C@H](/C=C/c3ccc(-c4ccccc4C#N)cn3)[C@@H]1[C@@H](C)N(C(=O)OC(C)(C)C)S2(=O)=O` [Example 26], for which the IC50 worked out at 54 nM.

Consider `C[C@H]1NS(=O)(=O)[C@]2(C)CC(F)(F)[C@@H](C)[C@H](/C=C/c3ccc(-c4ccccc4C#N)cn3)[C@H]12` [Example 16, (3R,3aR,4S,5S,7aR)-6,6-difluoro-4-((E)-2-(5-(2-cyanophenyl)pyridin-2-yl)vinyl)-3,5,7a-trimethyloctahydrobenzo[d]isothiazole 1,1-dioxide], for which the IC50 came out at 11.8 nM.

With `COc1ncccc1-c1ccc(/C=C/[C@@H]2[C@@H]3[C@@H](C)N(C(=O)OC(C)(C)C)S(=O)(=O)[C@]3(CC(N)=O)CC(F)(F)[C@H]2C)nc1` [Example 21], the IC50 stood at 110 nM.

Take `C[C@@H]1[C@H]2[C@@H](/C=C/c3ccc(-c4cccc(F)c4)cn3)[C@H](C)C(F)(F)C[C@H]2S(=O)(=O)N1C(=O)OC(C)(C)C` [Example 14, (3R,3aR,4S,5S,7aR)-tert-butyl 6,6-difluoro-4-((E)-2-(5-(3-fluorophenyl)pyridin-2-yl)vinyl)-3,5-dimethylhexahydrobenzo[d]isothiazole-2(3H)-carboxylate 1,1-dioxide]: the IC50 stood at 383 nM.

In the case of `COc1ncccc1-c1ccc(/C=C/[C@@H]2[C@H]3[C@@H](CC(F)(F)[C@H]2C)S(=O)(=O)N[C@@H]3C)nc1` [Example 1, (3R,3aR,4S,5S,7aR)-6,6-difluoro-4-((E)-2-(2′-methoxy-[3,3′-bipyridin]-6-yl)vinyl)-3,5-dimethyloctahydrobenzo[d]isothiazole 1,1-dioxide], the IC50 was found to be 5.1 nM.

With `COc1ncccc1-c1ccc(/C=C/[C@@H]2[C@@H]3[C@@H](C)N(C(=O)OC(C)(C)C)S(=O)(=O)[C@@H]3CC(F)(F)[C@H]2C)nc1` [Example 13, (3R,3aR,4S,5S,7aR)-tert-butyl 6,6-difluoro-4-((E)-2-(2′-methoxy-[3,3′-bipyridin]-6-yl)vinyl)-3,5-dimethylhexahydrobenzo[d]isothiazole-2(3H)-carboxylate 1,1-dioxide], the IC50 is 278 nM.

For `C[C@H]1NS(=O)(=O)[C@]2(CC(N)=O)CC(F)(F)[C@@H](C)[C@H](/C=C/c3ccc(-c4cccc(F)c4)cn3)[C@H]12` [Example 20, 2-((3R,3aR,4S,5S,7aR)-6,6-difluoro-4-((E)-2-(5-(3-fluorophenyl)pyridin-2-yl)vinyl)-3,5-dimethyl-1,1-dioxidooctahydrobenzo[d]isothiazol-7a-yl)acetamide], the IC50 is 5 nM.
